Data on one molecule can be found in PMC7292872 (Saudi Pharmaceutical Journal : SPJ, 2020).

The structures appear in SMILES notation.

The target of this assay is Human serum albumin (HSA) (Homo sapiens, UniProt P02768). As to the kind of experiment: UV-Vis absorption titration at […] nm. The class given is binding.
Human serum albumin (HSA), sequence (P02768 25-609): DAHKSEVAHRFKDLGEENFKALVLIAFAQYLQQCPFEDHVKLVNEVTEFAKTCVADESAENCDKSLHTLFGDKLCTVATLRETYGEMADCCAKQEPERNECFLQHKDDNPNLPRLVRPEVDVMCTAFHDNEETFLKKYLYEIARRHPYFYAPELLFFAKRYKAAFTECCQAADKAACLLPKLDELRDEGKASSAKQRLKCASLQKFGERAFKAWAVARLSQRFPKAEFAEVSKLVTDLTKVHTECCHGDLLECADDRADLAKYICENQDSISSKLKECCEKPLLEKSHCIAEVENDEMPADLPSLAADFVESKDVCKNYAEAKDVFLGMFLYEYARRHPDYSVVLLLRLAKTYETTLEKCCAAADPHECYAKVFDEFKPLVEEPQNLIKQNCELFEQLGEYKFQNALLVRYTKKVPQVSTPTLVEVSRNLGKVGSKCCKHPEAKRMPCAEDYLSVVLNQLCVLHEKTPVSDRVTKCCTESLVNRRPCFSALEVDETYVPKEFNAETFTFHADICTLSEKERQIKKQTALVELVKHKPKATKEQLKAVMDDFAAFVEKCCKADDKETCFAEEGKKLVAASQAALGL

For the molecule `CCCc1nc2c(C)cc(-c3nc4ccccc4n3C)cc2n1Cc1ccc(-c2ccccc2C(=O)O)cc1` [TLM], the dissociation constant Kd is 990 µM.

Usually Kd stands for the free concentration of one partner at which half of the binding sites on the other are occupied at equilibrium, for simple one-to-one binding. A high value points to lower affinity.
